Laboratory results: patent publication US20120071475A1, “UREA DERIVATIVES HAVING PI3K-INHIBITING ACTIVITY” (SHIONOGI & CO., LTD., priority 2009, published 2012)

Experiments:
[1] = tested on: AKT phosphorylation; assay: AKT phosphorylation inhibitory activity in MCP-1 stimulated THP-1 cells (sandwich ELISA); assay type: cell-based, Human; conditions: compound at 1 μmol/L, MCP-1 stimulation; for inhibition at 1 µM: Homo sapiens, read-out: AKT phosphorylation inhibition ratio
How it was run: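 THP-1 cells (6.7×10^6/mL in HBSS) were preincubated with compound at 1 μmol/L for 5 min at 37 °C, then stimulated for 60 s with HBSS containing 1.2 μg/mL MCP-1 and lysed. Phospho-Akt Ser473/AKT1 sandwich ELISA was read at A450. % inhibition: no compound = 100% activity, no MCP-1 = 0%.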

[2] = target: T1, CYP3A4 (Homo sapiens, UniProt P08684); assay: CYP3A4 fluorescence MBI test; assay type: in vitro ADME; conditions: difference in IC50 with 0 or 30 minutes pre-reaction; CYP3A4 expressed in E. coli, substrate 7-BFC
T1 construct: host or cells: E. coli
How it was run: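 E. coli-expressed CYP3A4 debenzylating 5.6 μmol/L 7-BFC to fluorescent 7-HFC (Ex 420/Em 535 nm) in K-Pi pH 7.4 at 25° C, 15 min reaction. NADPH pre-incubation of 0 or 30 min, with 10-fold dilution before reaction. IC50 from 0.625–20 μmol/L (6 points); (+) for an IC50 shift ≥5 μmol/L, (−) for ≤3 μmol/L.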

[3] = target: PI3Kγ (Homo sapiens, UniProt P48736); assay: PI3Kγ inhibitory activity (PI3-kinase HTRF assay, inhibition ratio); assay type: biochemical; conditions: compound at 10 μmol/L; for inhibition at 10 µM: 0.5 h, read-out: PI3Kg Inhibition Ratio % (10 μM)
How it was run: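 Compound at 10 μmol/L preincubated 10 min with PI3Kγ and PIP2 substrate, then reacted with ATP for 30 minutes at room temperature; the compound, substrate and ATP figures as printed (40 μmol/L each) are solution concentrations. HTRF 665/620 nm ratio read after 18 hours. Inhibition ratio calculated against no-compound (100%) and no-enzyme (0%) controls.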

T1 sequence (P08684 whole entry): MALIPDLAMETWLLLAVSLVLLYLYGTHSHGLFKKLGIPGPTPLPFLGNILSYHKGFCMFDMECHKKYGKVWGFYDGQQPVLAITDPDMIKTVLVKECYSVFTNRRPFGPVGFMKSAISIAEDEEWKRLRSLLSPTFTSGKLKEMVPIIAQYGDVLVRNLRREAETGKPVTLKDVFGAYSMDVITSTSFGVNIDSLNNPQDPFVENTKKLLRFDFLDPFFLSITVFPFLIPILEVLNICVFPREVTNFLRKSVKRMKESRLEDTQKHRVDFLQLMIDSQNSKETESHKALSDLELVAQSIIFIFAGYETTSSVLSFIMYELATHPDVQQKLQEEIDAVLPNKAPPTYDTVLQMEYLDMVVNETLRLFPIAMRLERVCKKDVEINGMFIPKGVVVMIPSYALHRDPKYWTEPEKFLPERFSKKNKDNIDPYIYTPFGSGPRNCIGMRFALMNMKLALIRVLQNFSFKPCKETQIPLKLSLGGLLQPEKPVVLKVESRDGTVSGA
Chain of PI3Kγ (P48736 whole entry, species assumed): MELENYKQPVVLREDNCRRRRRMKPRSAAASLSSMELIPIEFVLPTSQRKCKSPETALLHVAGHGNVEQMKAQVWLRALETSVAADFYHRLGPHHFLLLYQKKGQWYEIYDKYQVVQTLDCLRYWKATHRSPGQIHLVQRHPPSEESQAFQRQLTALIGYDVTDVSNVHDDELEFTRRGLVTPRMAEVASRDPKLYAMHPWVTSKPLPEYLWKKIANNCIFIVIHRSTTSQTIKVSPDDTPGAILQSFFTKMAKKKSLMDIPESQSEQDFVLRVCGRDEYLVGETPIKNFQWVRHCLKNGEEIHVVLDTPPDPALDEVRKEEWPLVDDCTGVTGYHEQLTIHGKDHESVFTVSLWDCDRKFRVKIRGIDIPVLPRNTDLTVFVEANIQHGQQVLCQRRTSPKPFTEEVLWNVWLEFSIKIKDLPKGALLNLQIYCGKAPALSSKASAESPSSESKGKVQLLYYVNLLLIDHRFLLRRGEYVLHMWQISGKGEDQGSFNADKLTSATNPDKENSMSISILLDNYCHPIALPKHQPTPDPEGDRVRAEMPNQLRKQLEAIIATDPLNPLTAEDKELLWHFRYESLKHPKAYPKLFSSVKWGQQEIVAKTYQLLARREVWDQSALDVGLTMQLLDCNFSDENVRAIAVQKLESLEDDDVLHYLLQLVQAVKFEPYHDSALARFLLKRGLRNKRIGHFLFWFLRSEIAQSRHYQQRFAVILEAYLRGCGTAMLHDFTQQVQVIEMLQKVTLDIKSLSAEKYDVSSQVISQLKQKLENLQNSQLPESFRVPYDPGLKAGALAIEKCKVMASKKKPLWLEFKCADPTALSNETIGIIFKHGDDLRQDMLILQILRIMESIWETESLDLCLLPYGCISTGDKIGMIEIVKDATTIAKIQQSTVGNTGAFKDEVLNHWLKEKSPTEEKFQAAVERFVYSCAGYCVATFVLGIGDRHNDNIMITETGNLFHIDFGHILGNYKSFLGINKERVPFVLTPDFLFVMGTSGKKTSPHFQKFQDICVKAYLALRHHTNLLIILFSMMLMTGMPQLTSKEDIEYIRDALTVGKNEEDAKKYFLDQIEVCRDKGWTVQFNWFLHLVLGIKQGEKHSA

Compound: COc1cncc(-c2ccc3nc(NC(=O)Nc4ccccc4OCCC(C)C)cn3n2)c1 [Compound I-114]
- inhibition at 1 µM [1]: 64.9%
- MBI [2]: (−) (When 3 μmol/L or less, the compound is shown as (−))

Compound: COc1cc(N2CCc3nc(NC(=O)Nc4cn(C)nc4C(=O)NCC(F)(F)F)sc3C2)nc(OC)n1 [Compound I-148]
- inhibition at 10 µM [3]: 90%
- inhibition at 1 µM [1]: ≥ 95%

Compound: COc1cc(N2CCc3nc(NC(=O)Nc4ccccc4C(=O)NC(C)C(O)C(F)(F)F)sc3C2)nc(OC)n1 (stereo not shown) [Compound I-139]
- PI3Kg Inhibition Ratio % (10 μM) [3]: ≧95%
- AKT phosphorylation inhibition ratio [1]: ≥ 95%
- MBI [2]: (−) (When 3 μmol/L or less, the compound is shown as (−))

Compound: C[C@@H](CO)NC(=O)c1ccccc1NC(=O)Nc1nc2c(s1)CN(c1cncc(S(C)(=O)=O)c1)CC2 [Compound I-211]
- inhibition at 10 µM [3]: 87%
- inhibition at 1 µM [1]: 85%
- MBI [2]: (−) (When 3 μmol/L or less, the compound is shown as (−))

Compound: COc1nc(Cl)cc(N2CCc3nc(NC(=O)Nc4ccccc4C(=O)NC4CCCOC4)sc3C2)n1 (stereo not shown) [Compound I-197]
- inhibition at 10 µM [3]: ≥ 95%
- inhibition at 1 µM [1]: 90%

Compound: COc1cncc(-c2cc(NC(=O)Nc3ccccc3C(=O)NC(C)C)nn2C)c1 [Compound I-226]
- inhibition at 10 µM [3]: 93%
- MBI [2]: (−) (When 3 μmol/L or less, the compound is shown as (−))

Compound: Cc1nc(NC(=O)Nc2ccccc2C(=O)NC(C)C)sc1-c1ccc(S(C)(=O)=O)c(F)c1 [Compound I-127]
- inhibition at 10 µM [3]: ≥ 95%
- inhibition at 1 µM [1]: 77.7%

Compound: CC(C)NC(=O)c1ccccc1NC(=O)Nc1nc2c(s1)CN(c1cccc(S(C)(=O)=O)c1)CC2 [Compound I-198]
- inhibition at 10 µM [3]: ≥ 95%
- inhibition at 1 µM [1]: 94%

Compound: COc1cc(N2CCc3nc(NC(=O)Nc4ccccc4C(=O)NC(C)C)sc3C2)nc(OC)n1 [Compound I-12]
- inhibition at 10 µM [3]: 94%
- inhibition at 1 µM [1]: ≥ 95%
- MBI [2]: (−) (When 3 μmol/L or less, the compound is shown as (−))

Compound: CC(C)NC(=O)c1ccccc1NC(=O)Nc1nc2c(s1)CN(c1cncc(C(F)(F)F)c1)CC2 [Compound I-131]
- inhibition at 10 µM [3]: 78%
- inhibition at 1 µM [1]: 84%
- MBI [2]: (−) (When 3 μmol/L or less, the compound is shown as (−))

Compound: COc1cc(N2CCc3nc(NC(=O)Nc4ccccc4C(=O)NN4CCN(C)CC4)sc3C2)nc(OC)n1 [Compound I-195]
- inhibition at 10 µM [3]: ≥ 95%
- inhibition at 1 µM [1]: 82%
- MBI [2]: (−) (When 3 μmol/L or less, the compound is shown as (−))

Compound: Cc1nc(NC(=O)Nc2ccccc2C(=O)NC(C)C)sc1-c1csc(S(=O)(=O)N(C)CCN(C)C)c1 [Compound I-191]
- inhibition at 10 µM [3]: 87%
- inhibition at 1 µM [1]: 93%

Compound: COc1nc(Cl)cc(N2CCc3nc(NC(=O)Nc4cnccc4C(=O)NC(C)C)sc3C2)n1 [Compound I-91]
- inhibition at 10 µM [3]: ≥ 95%
- inhibition at 1 µM [1]: 94.7%
- MBI [2]: (−) (When 3 μmol/L or less, the compound is shown as (−))

Compound: COc1cc(N2CCc3nc(NC(=O)Nc4ccccc4C(=O)NCCF)sc3C2)nc(OC)n1 [Compound I-88]
- inhibition at 10 µM [3]: ≥ 95%
- inhibition at 1 µM [1]: 87.3%
- MBI [2]: (−) (When 3 μmol/L or less, the compound is shown as (−))

Compound: COc1cc(N2CCc3nc(NC(=O)Nc4ccccc4C(=O)NC4CCOCC4)sc3C2)nc(OC)n1 [Compound I-203]
- inhibition at 10 µM [3]: 91%
- inhibition at 1 µM [1]: ≥ 95%
